Experimental data reported in US9273092B2, “Selective binding compounds” (RIOGIN Corporation, priority 2011, dated 2016).

Target: hSA (Homo sapiens, UniProt P02768)
Experiment: hSA binding assay (hSA-coated microtiter plate, streptavidin-polyHRP/ABTS, OD 405 nm)
Settings: for Bmax: given only for compounds with an Exp 2 value
Procedure: hSA binding assay. Microtiter 96 well plate is coated, overnight at 4° C., using […] of a solution of hSA in PBS ([…]). Plate is washed with PBS and blocked, for 1 hours, using 150 ml, per well, of a 10% solution of Tween 20 in water. After 1 hour the wells are washed with PBS. The hSA binders tested are dissolved in PBS, 100 ml of the tested solutions are then added in the well and incubated for 2 hours. After 2 hours, the solution are discarded and the wells are washed using PBS, 0.1% Tween 20. 100 ml of a solution of streptavidin-polyHRP in PBS 1.375% casein is added to the wells and incubated for 1 more hours. Finally wells are washed with PBS, 0.1% Tween 20, and 100 ml ABTS in phosphate-citrate buffer with sodium perborate is added. After a few minutes OD are read at 405 nm.
A plurality of compounds according to the invention were prepared. All of the compounds contained the Cys-Pro-Cys moiety. These compounds and an assay control were tested using the above procedure. Some compounds were tested twice (Exp 1 and Exp 2).

Sequence of hSA (P02768 25-609): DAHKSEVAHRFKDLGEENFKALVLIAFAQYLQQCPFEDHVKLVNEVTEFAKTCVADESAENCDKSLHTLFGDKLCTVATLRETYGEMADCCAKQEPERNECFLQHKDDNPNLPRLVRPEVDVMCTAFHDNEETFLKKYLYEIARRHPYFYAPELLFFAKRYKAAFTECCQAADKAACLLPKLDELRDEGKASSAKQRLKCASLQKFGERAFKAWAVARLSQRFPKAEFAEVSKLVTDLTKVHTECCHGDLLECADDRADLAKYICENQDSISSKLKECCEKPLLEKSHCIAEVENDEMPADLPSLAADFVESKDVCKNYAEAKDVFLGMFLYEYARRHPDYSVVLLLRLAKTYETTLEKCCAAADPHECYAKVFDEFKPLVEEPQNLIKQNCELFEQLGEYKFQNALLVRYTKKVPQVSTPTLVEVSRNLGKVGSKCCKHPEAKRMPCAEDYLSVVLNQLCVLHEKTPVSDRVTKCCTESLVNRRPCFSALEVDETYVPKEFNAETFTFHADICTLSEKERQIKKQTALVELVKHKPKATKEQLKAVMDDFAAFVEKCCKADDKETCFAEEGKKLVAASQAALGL

Binding, Exp 1 | Binding, Exp 2 | Bmax | Sequence
0.1836 | – | – | KLIEDFCPCLW [Compound 44, KLIEDF-LW, "-" represents cysteine-proline-cysteine]
– | 0.1598 | 0.6151 | RTIEDICPCLW [Compound 99, RTIEDI-LW, "-" represents cysteine-proline-cysteine]
0.1033 | – | – | KLIEDICPCFW [Compound 30, KLIEDI-FW, "-" represents cysteine-proline-cysteine]
0.07161 | – | – | KLIEDICPCLH [Compound 23, KLIEDI-LH, "-" represents cysteine-proline-cysteine]
0.3108 | – | – | RLIEDICPCVW [Compound 52, RLIEDI-VW, "-" represents cysteine-proline-cysteine]
1.415 | 0.2342 | 0.8075 | KIIEDICPCLW [Compound 62, KIIEDI-LW, "-" represents cysteine-proline-cysteine]
– | 0.257 | 1.425 | KEIEDICPCLW [Compound 93, KEIEDI-LW, "-" represents cysteine-proline-cysteine]
0.2445 | – | – | KLIEDICPCQW [Compound 48, KLIEDI-QW, "-" represents cysteine-proline-cysteine]
– | 0.2247 | 1.301 | RLISDICPCLW [Compound 98, RLISDI-LW, "-" represents cysteine-proline-cysteine]
0.03473 | 0.1216 | 1.036 | RLIADICPCLW [Compound 4, RLIADI-LW, "-" represents cysteine-proline-cysteine]
0.7026 | – | – | RLIEEICPCLW [Compound 57, RLIEEI-LW, "-" represents cysteine-proline-cysteine]
0.04544 | – | – | RLIEDICPCFW [Compound 10, RLIEDI-FW, "-" represents cysteine-proline-cysteine]
0.3109 | – | – | KLIEYICPCLW [Compound 53, KLIEYI-LW, "-" represents cysteine-proline-cysteine]
0.03868 | – | – | KLIEVICPCLW [Compound 5, KLIEVI-LW, "-" represents cysteine-proline-cysteine]
0.07352 | – | – | KLTEDICPCLW [Compound 24, KLTEDI-LW, "-" represents cysteine-proline-cysteine]
– | 0.1395 | 1.19 | KLIVDICPCLW [Compound 95, KLIVDI-LW, "-" represents cysteine-proline-cysteine]
1.877 | – | – | RLIEDICPCLH [Compound 63, RLIEDI-LH, "-" represents cysteine-proline-cysteine]
1.193 | – | – | RLIEDICPCQW [Compound 60, RLIEDI-QW, "-" represents cysteine-proline-cysteine]
0.02504 | – | – | KLISDICPCLW [Compound 3, KLISDI-LW, "-" represents cysteine-proline-cysteine]
0.03902 | – | – | RLTEDICPCLW [Compound 7, RLTEDI-LW, "-" represents cysteine-proline-cysteine]
0.06947 | – | – | KLIEDICPCLK [Compound 21, KLIEDI-LK, "-" represents cysteine-proline-cysteine]
0.153 | – | – | KLIEDACPCLW [Compound 39, KLIEDA-LW, "-" represents cysteine-proline-cysteine]
0.1126 | – | – | RLIEDICPCTW [Compound 32, RLIEDI-TW, "-" represents cysteine-proline-cysteine]
0.1635 | – | – | KLVEDICPCLW [Compound 41, KLVEDI-LW, "-" represents cysteine-proline-cysteine]
0.3336 | – | – | RLIEDVCPCLW [Compound 54, RLIEDV-LW, "-" represents cysteine-proline-cysteine]
0.3066 | 0.1771 | 1.048 | KLIQDICPCLW [Compound 51, KLIQDI-LW, "-" represents cysteine-proline-cysteine]
0.1404 | – | – | RLIKDICPCLW [Compound 36, RLIKDI-LW, "-" represents cysteine-proline-cysteine]
0.04142 | 0.1971 | 1.136 | RFIEDICPCLW [Compound 8, RFIEDI-LW, "-" represents cysteine-proline-cysteine]
0.2411 | 0.581 | 1.4 | KQIEDICPCLW [Compound 47, KQIEDI-LW, "-" represents cysteine-proline-cysteine]

More lines, now with the values behind:

Sequence | Binding, Exp 1 | Binding, Exp 2 | Bmax
KLIYDICPCLW [Compound 29, KLIYDI-LW, "-" represents cysteine-proline-cysteine] | 0.1014 | 0.09262 | 0.7912
RLIEDICPCLK [Compound 66, RLIEDI-LK, "-" represents cysteine-proline-cysteine] | 6.227 | – | –
LKIKDICPCLW [Compound 94, LKIKDI-LW, "-" represents cysteine-proline-cysteine] | – | 0.2987 | 1.253
KVIEDICPCLW [Compound 64, KVIEDI-LW, "-" represents cysteine-proline-cysteine] | 2.575 | 0.1137 | 0.3906
RIIEDICPCLW [Compound 40, RIIEDI-LW, "-" represents cysteine-proline-cysteine] | 0.1632 | 0.1166 | 0.6826
RLIEDQCPCLW [Compound 16, RLIEDQ-LW, "-" represents cysteine-proline-cysteine] | 0.06092 | – | –
RVIEDICPCLW [Compound 19, RVIEDI-LW, "-" represents cysteine-proline-cysteine] | 0.06391 | 0.2112 | 1.089
RLIQICPCLW [Compound 97, RLIQI-LW, "-" represents cysteine-proline-cysteine] | – | 0.1909 | 0.8584
RLEEDICPCLW [Compound 17, RLEEDI-LW, "-" represents cysteine-proline-cysteine] | 0.0625 | – | –
RLIESICPCLW [Compound 61, RLIESI-LW, "-" represents cysteine-proline-cysteine] | 1.238 | – | –
KLIEDICPCVW [Compound 15, KLIEDI-VW, "-" represents cysteine-proline-cysteine] | 0.05545 | – | –
RLIEVICPCLW [Compound 37, RLIEVI-LW, "-" represents cysteine-proline-cysteine] | 0.1503 | – | –
KLIEDICPCLQ [Compound 42, KLIEDI-LQ, "-" represents cysteine-proline-cysteine] | 0.1651 | – | –
RQIEDICPCLW [Compound 2, RQIEDI-LW, "-" represents cysteine-proline-cysteine] | 0.02306 | 0.2243 | 1.232
KLFEDICPCLW [Compound 33, KLFEDI-LW, "-" represents cysteine-proline-cysteine] | 0.1213 | – | –
KLIEDICPCLE [Compound 49, KLIEDI-LE, "-" represents cysteine-proline-cysteine] | 0.2709 | – | –
RLIEDECPCLW [Compound 58, RLIEDE-LW, "-" represents cysteine-proline-cysteine] | 0.8196 | – | –
RLIENICPCLW [Compound 14, RLIENI-LW, "-" represents cysteine-proline-cysteine] | 0.05331 | – | –
RLIEDICPCLV [Compound 43, RLIEDI-LV, "-" represents cysteine-proline-cysteine] | 0.1701 | – | –
RLIQDICPCLW [Compound 18, RLIQDI-LW, "-" represents cysteine-proline-cysteine] | 0.06261 | – | –
RLVEDICPCLW [Compound 20, RLVEDI-LW, "-" represents cysteine-proline-cysteine] | 0.06407 | – | –
RLIEDTCPCLW [Compound 27, RLIEDT-LW, "-" represents cysteine-proline-cysteine] | 0.08956 | – | –
KLIADICPCLW [Compound 46, KLIADI-LW, "-" represents cysteine-proline-cysteine] | 0.2126 | 0.1074 | 1.077
KTIEDICPCLW [Compound 22, KTIEDI-LW, "-" represents cysteine-proline-cysteine] | 0.06947 | 0.1476 | 1.427
KLIEDICPCLW [Compound 26, KLIEDI-LW, "-" represents cysteine-proline-cysteine] | 0.08742 | – | –
RLIEDACPCLW [Compound 38, RLIEDA-LW, "-" represents cysteine-proline-cysteine] | 0.1522 | – | –
RLIEDICPCAW [Compound 59, RLIEDI-AW, "-" represents cysteine-proline-cysteine] | 1.031 | – | –
KLIEDICPCAW [Compound 25, KLIEDI-AW, "-" represents cysteine-proline-cysteine] | 0.08281 | – | –
